Test results: ChEMBL document CHEMBL3272152, “Diester derivatives as apomorphine prodrugs” (J Med Chem, 1976)
Active and inactive are the calls of the source. The calls are words filed in the database; no cut-off is given here.

Key:
[1] = system: Rattus norvegicus; assay: Induction of turning behavior in rat at 50 to 200 umol/kg, ip; type: functional, organism-based
[2] = system: Rattus norvegicus; assay: Induction of stereotyped gnawling behavior in rat assessed as time duration at 200 umol/kg, ip relative to control; type: functional
[3] = system: Striatum; assay: Induction of cAMP production in rat corpus striatum at 10 to 100 uM; type: functional, tissue-based
[4] = system: Rattus norvegicus; assay: Induction of stereotyped gnawling behavior in rat assessed as time duration at 30 umol/kg, ip relative to control; type: functional
[5] = system: Rattus norvegicus; assay: Induction of stereotyped gnawling behavior in ip dosed rat assessed as time duration; type: functional, organism-based
[6] = system: Rattus norvegicus; assay: Induction of stereotyped gnawling behavior in rat assessed as time duration at 100 umol/kg, ip relative to control; type: functional
[7] = system: Rattus norvegicus; assay: Induction of stereotyped gnawling behavior in rat assessed as time duration of behavior administered by gastric tube; type: functional, organism-based
[8] = Toxicity in ip dosed rat; type: organism-based; settings: in vivo
[9] = system: Rattus norvegicus; assay: Induction of stereotyped gnawling behavior in ip dosed rat assessed as latency to peak score of stereotyped behavior; type: functional
[10] = system: Liver; assay: Prodrug conversion in rat liver at 0.4 mM after 60 mins; type: ADME, tissue-based; settings: 1 h, 400 µM
[11] = system: Brain; assay: Drug uptake in ip dosed mouse brain; type: ADME, organism-based; settings: in vivo
[12] = system: Striatum; assay: Induction of cAMP production in rat corpus striatum at 10 to 100 uM in presence of rat liver; type: functional, tissue-based

SMILES | Activity [1] | Time [2] [h] | Activity [3] | Time [4] [h] | Activity [5] | Time [6] [h] | Activity [7] | MTD [8] [mg/kg] | Time [9] [min] | Drug metabolism [10] [%] | Drug uptake [11] | Activity [12]
CN1CCc2cccc3c2[C@H]1Cc1ccc(OC(=O)C(C)(C)C)c(OC(=O)C(C)(C)C)c1-3.Cl | Active | 7.8 | inactive | 3.1 | Dose-dependent effect | 5.1 | inactive | < 300 | – | – | – | –
CC(=O)Oc1ccc2c(c1OC(C)=O)-c1cccc3c1[C@@H](C2)N(C)CC3 | Active | 2.7 | inactive | 2.1 | Active | 2.3 | inactive | < 300 | – | – | – | –
CN1CCc2cccc3c2[C@H]1Cc1ccc(OC(=O)c2ccccc2)c(OC(=O)c2ccccc2)c1-3 | Active | 10.8 | inactive | 3.8 | Dose-dependent effect | 6.3 | inactive | < 300 | 83 | 9 | Active | –
CC(C)C(=O)Oc1ccc2c(c1OC(=O)C(C)C)-c1cccc3c1[C@@H](C2)N(C)CC3.Cl | Active | 4.9 | inactive | 2.5 | Dose-dependent effect | 3.3 | inactive | < 300 | – | 55 | Active | Active
CN1CCc2cccc3c2[C@H]1Cc1ccc(O)c(O)c1-3.CN1CCc2cccc3c2[C@H]1Cc1ccc(O)c(O)c1-3.Cl.Cl.O [APOMORPHINE HYDROCHLORIDE] | Active | 2.6 | – | 1.6 | – | 1.9 | inactive | < 300 | 26 | – | – | –
CCC(=O)Oc1ccc2c(c1OC(=O)CC)-c1cccc3c1[C@@H](C2)N(C)CC3.Cl | Active | 2.9 | inactive | 1.6 | inactive | 1.9 | inactive | < 300 | 41 | – | – | –
